{"source": "ChEMBL document CHEMBL2074016", "about": "“Comparative studies on in vitro methods for evaluating in vivo function of MDR1 P-glycoprotein” (Pharm Res, 2001)", "key": {"[1]": {"biological_target": "T1, ATP-dependent translocase ABCB1 (Homo sapiens, UniProt P08183)", "T1 sequence (P08183 whole entry)": "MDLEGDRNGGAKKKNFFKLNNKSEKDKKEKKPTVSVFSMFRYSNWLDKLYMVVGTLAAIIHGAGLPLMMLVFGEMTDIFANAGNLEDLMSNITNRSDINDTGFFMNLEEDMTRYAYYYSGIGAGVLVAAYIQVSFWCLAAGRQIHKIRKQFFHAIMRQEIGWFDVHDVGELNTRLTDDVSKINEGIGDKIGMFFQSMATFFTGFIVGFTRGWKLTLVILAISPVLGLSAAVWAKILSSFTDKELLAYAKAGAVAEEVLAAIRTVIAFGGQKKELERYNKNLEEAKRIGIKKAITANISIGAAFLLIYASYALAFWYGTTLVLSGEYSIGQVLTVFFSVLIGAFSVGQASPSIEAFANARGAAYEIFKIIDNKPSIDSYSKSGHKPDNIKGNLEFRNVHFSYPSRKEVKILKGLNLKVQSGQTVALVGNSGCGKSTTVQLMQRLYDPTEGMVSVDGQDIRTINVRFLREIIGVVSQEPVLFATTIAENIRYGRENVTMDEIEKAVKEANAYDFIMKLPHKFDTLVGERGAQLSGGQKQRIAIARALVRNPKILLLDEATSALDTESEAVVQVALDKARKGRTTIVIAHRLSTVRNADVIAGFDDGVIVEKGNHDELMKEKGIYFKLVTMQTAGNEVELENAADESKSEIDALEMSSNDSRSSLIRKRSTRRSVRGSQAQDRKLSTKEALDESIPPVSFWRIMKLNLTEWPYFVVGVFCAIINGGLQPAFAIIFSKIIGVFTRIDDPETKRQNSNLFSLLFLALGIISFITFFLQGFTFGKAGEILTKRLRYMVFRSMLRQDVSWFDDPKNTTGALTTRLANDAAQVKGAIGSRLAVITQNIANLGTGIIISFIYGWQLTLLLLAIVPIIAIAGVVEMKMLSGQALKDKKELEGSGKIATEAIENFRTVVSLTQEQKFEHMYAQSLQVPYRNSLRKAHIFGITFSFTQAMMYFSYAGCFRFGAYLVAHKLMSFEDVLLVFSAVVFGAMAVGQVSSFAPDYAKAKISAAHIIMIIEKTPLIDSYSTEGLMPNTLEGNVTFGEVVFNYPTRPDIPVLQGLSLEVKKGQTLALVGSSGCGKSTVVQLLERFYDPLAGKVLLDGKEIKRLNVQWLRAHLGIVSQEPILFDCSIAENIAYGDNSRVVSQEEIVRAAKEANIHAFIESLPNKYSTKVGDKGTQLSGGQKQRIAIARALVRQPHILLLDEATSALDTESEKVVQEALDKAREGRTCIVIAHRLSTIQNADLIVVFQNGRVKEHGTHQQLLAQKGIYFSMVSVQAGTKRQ", "assay": "(§1) TP_TRANSPORTER: ATP hydrolysis in membrane fraction from High Five (BTI-TN5B1-4) cells", "assay_type": "functional, cell membranes, BTI-TN-5B1-4", "conditions": "bti-tn-5b1-4"}, "[2]": {"biological_target": "T1, ATP-dependent translocase ABCB1", "assay": "TP_TRANSPORTER: transepithelial transport (apical to basal) of Daunorubicin (Daunomycin) at a concentration of 200 nM in MDR1-expressing LLC-PK1 cells", "assay_type": "functional, cell-based", "conditions": "pig, llc-pk1, 0.2 µM"}, "[3]": {"biological_target": "P-glycoprotein 1 and 3 (MDR1a/MDR1b) (Mus musculus, UniProt P21447+P06795)", "assay": "TP_TRANSPORTER: increase in brain concentration in mdr1a/1b(-/-) mouse", "assay_type": "functional, organism-based", "conditions": "in vivo"}, "[4]": {"biological_target": "T1, ATP-dependent translocase ABCB1", "assay": "TP_TRANSPORTER: transepithelial transport (apical to basal) of Dexamethasone at a concentration of 24.7 nM in MDR1-expressing LLC-PK1 cells", "assay_type": "functional, cell-based", "conditions": "pig, llc-pk1, 0.0247 µM"}, "[5]": {"biological_target": "T1, ATP-dependent translocase ABCB1", "assay": "TP_TRANSPORTER: transepithelial transport (apical to basal) of Digoxin at a concentration of 52.6 nM in MDR1-expressing LLC-PK1 cells", "assay_type": "functional, cell-based", "conditions": "pig, llc-pk1, 0.0526 µM"}, "[6]": {"biological_target": "T1, ATP-dependent translocase ABCB1", "assay": "TP_TRANSPORTER: transepithelial transport (apical to basal) of Loperamide at a concentration of 1 uM in MDR1-expressing LLC-PK1 cells", "assay_type": "functional, cell-based", "conditions": "pig, llc-pk1, 1 µM"}, "[7]": {"biological_target": "ATP-dependent translocase ABCB1 (P-glycoprotein) (Homo sapiens, UniProt P08183)", "sequence (P08183 whole entry)": "as above", "assay": "as §1", "assay_type": "functional, cell membranes, BTI-TN-5B1-4", "conditions": "membrane fraction from High Five (BTI-TN5B1-4) cells"}, "[8]": {"biological_target": "T1, ATP-dependent translocase ABCB1", "assay": "TP_TRANSPORTER: transepithelial transport (apical to basal) of Progesterone at 7 nM in MDR1-expressing LLC-PK1 cells", "assay_type": "functional, cell-based", "conditions": "pig, llc-pk1, 0.007 µM"}, "[9]": {"biological_target": "T1, ATP-dependent translocase ABCB1", "assay": "TP_TRANSPORTER: transepithelial transport (apical to basal) of Vinblastine at a concentration of 22.5 nM in MDR1-expressing LLC-PK1 cells", "assay_type": "functional, cell-based", "conditions": "pig"}, "[10]": {"test_system": "CN1C(=O)CN=C(c2ccccc2)c2cc(Cl)ccc21", "assay": "as §1", "assay_type": "functional, cell membranes, BTI-TN-5B1-4"}}}
{"molecule": "CN/C(=N/CCSCc1nc[nH]c1C)NC#N", "note": "[CIMETIDINE]", "values": [{"measurement": "Activity", "setting": "[1]", "value": "is not a substrate [-]"}]}
{"molecule": "COc1cccc2c1C(=O)c1c(O)c3c(c(O)c1C2=O)C[C@@](O)(C(C)=O)C[C@@H]3O[C@H]1C[C@H](N)[C@H](O)[C@H](C)O1", "note": "[DAUNORUBICIN]", "values": [{"measurement": "Activity", "setting": "[2]", "value": "substrate [+]"}, {"measurement": "Activity", "setting": "[3]", "value": "substrate [+]"}]}
{"molecule": "C[C@@H]1C[C@H]2[C@@H]3CCC4=CC(=O)C=C[C@]4(C)[C@@]3(F)[C@@H](O)C[C@]2(C)[C@@]1(O)C(=O)CO", "note": "[DEXAMETHASONE]", "values": [{"measurement": "Activity", "setting": "[4]", "value": "substrate [+]"}, {"measurement": "Activity", "setting": "[1]", "value": "is not a substrate [-]"}]}
{"molecule": "C[C@H]1O[C@@H](O[C@H]2[C@@H](O)C[C@H](O[C@H]3[C@@H](O)C[C@H](O[C@H]4CC[C@@]5(C)[C@H](CC[C@@H]6[C@@H]5C[C@@H](O)[C@]5(C)[C@@H](C7=CC(=O)OC7)CC[C@]65O)C4)O[C@@H]3C)O[C@@H]2C)C[C@H](O)[C@@H]1O", "note": "[DIGOXIN]", "values": [{"measurement": "Activity", "setting": "[5]", "value": "substrate [+]"}]}
{"molecule": "C[C@]12CC[C@@H]3c4ccc(O)cc4CC[C@H]3[C@@H]1CC[C@@H]2O[C@@H]1O[C@H](C(=O)O)[C@@H](O)[C@H](O)[C@H]1O", "note": "[ESTRADIOL 17B GLUCURONIDE]", "values": [{"measurement": "Activity", "setting": "[1]", "value": "substrate [+]"}]}
{"molecule": "CN(C)C(=O)C(CCN1CCC(O)(c2ccc(Cl)cc2)CC1)(c1ccccc1)c1ccccc1", "note": "[LOPERAMIDE]", "values": [{"measurement": "Activity", "setting": "[6]", "value": "substrate [+]"}, {"measurement": "Km", "setting": "[7]", "value": 13.8, "unit": "µM"}]}
{"molecule": "CC(=O)[C@H]1CC[C@H]2[C@@H]3CCC4=CC(=O)CC[C@]4(C)[C@H]3CC[C@]12C", "note": "[PROGESTERONE]", "values": [{"measurement": "Activity", "setting": "[8]", "value": "is not a substrate [-]"}]}
{"molecule": "CC[C@]1(O)C[C@@H]2CN(CCc3c([nH]c4ccccc34)[C@@](C(=O)OC)(c3cc4c(cc3OC)N(C)[C@H]3[C@@](O)(C(=O)OC)[C@H](OC(C)=O)[C@]5(CC)C=CCN6CC[C@]43[C@@H]65)C2)C1", "note": "[VINBLASTINE]", "values": [{"measurement": "Activity", "setting": "[9]", "value": "substrate [+]"}]}
{"molecule": "ATP-dependent translocase ABCB1 (Homo sapiens)", "values": [{"measurement": "Km", "setting": "[10]", "value": 72.4, "unit": "µM"}]}
